Laboratory results reported in BindingDB's records for doi:10.7270/Q2ZG6QP2 (Nmmlsc, 2010).

Biological target: T1, Integrin alpha-4 (Homo sapiens, UniProt P13612)
T1 sequence (P13612 whole entry): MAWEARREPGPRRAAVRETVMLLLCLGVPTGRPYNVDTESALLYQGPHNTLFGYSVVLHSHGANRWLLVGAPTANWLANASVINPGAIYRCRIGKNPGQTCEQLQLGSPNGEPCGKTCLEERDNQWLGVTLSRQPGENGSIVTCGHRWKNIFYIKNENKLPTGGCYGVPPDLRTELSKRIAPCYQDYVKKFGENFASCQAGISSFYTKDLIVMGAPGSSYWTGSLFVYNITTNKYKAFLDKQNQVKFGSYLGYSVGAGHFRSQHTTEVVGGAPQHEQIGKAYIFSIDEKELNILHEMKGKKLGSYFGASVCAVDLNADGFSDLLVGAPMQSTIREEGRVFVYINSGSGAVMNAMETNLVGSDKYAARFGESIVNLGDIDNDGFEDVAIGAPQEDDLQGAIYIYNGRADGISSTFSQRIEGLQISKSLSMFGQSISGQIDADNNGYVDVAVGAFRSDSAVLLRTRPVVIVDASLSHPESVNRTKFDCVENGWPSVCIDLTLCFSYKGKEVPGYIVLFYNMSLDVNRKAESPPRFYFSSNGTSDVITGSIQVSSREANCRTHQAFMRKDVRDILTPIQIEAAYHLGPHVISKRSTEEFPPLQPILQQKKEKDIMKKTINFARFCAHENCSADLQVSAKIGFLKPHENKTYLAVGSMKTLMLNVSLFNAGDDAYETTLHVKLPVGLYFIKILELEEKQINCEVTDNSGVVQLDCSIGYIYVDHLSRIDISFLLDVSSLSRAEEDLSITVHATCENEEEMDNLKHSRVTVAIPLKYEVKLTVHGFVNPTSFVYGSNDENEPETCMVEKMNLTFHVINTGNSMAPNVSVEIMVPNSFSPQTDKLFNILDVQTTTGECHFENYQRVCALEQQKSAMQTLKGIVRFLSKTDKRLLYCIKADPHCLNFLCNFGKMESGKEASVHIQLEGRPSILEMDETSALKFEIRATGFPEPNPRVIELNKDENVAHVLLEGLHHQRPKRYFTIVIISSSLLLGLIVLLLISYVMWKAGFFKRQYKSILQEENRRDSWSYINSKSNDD
Assay: concentration series for VLA-4 modulators – cell-based, U937, HUTS-21 LIBS antibody, flow cytometry, dose response (AID 449766)

[1] = inactive by the depositor's call

Row | SMILES | EC50 [µM] | EC50 [1] [µM]
1 | CC(NC(=O)/C(C#N)=C/c1ccc(Cl)c([N+](=O)[O-])c1)c1ccccc1 (configuration not stated) [(E)-3-(4-chloro-3-nitrophenyl)-2-cyano-N-(1-phenylethyl)prop-2-enamide] | 0.95 | –
2 | COc1cccc(-c2sc3ccccc3c2-c2ccc(OCCN3CCCCC3)cc2)c1 [SMR001397793] | – | 5.46
3 | COc1cccc(-c2sc3ccccc3c2-c2ccc(OCCN3CCCC3)cc2)c1 | > 30 | –
4 | COC(=O)C[C@]1(C(=O)OC)CN(C#N)N(c2ccc(Cl)cc2)C12c1ccccc1-c1ccccc12 [methyl 1-(4-chlorophenyl)-2-cyano-4-(2-methoxy-2-oxoethyl)spiro[pyrazolidine-5,9'-(9'H)-fluorene]-4-carboxylate] | > 30 | –
5 | COc1ccc(C(=O)c2cc([N+](=O)[O-])ccc2N2CCOCC2)cc1 [MLS000663963] | > 30 | –
6 | Cc1ccc(NC(=O)c2cc(N3C(=O)C=CC3=O)ccc2N2CCOCC2)cc1Cl [N-(3-chloro-4-methylphenyl)-5-(2,5-dioxo-2,5-dihydro-1H-pyrrol-1-yl)-2-(4-morpholinyl)benzamide] | 5.5 | –
7 | COc1cccc(-c2sc3ccc(OC)cc3c2-c2ccc(OCCN(C)C)cc2)c1 [SMR001397780] | – | 0.22
8 | C=C1C(O)[C@@H]2O[C@]3(CC[C@H](/C=C/C(C)[C@@H]4CC(C)=CC5(O[C@H](C[C@@](C)(O)CO)CCC5O)O4)O3)CC[C@H]2O[C@@H]1C(O)CC(C)[C@H]1OC2(CCCCO2)CCC1C (some centres not stated) [MLS002320507] | 0.61 | –
9 | CCOC(=O)COc1ccccc1/C=C\[N+](=O)[O-] [SMR000204386] | 2.45 | –
10 | CCOCCCNC(=O)/C(C#N)=C/c1ccc(Cl)c([N+](=O)[O-])c1 [(E)-3-(4-chloro-3-nitrophenyl)-2-cyano-N-(3-ethoxypropyl)-2-propenamide] | 3.59 | –
11 | c1ccc(-c2sc3ccccc3c2-c2ccc(OCCN3CCCC3)cc2)cc1 [1-[2-[4-(2-phenyl-1-benzothiophen-3-yl)phenoxy]ethyl]pyrrolidine] | 14.8 | –
12 | CN(C)CCOc1ccc(-c2c(-c3ccccc3)sc3ccccc23)cc1 [SMR001397792] | > 30 | –
13 | COc1ccc(-c2sc3ccccc3c2-c2ccc(OCCN(C)C)cc2)cc1 [MLS002473632] | > 30 | –
14 | O=C(COc1ccc(C=NNC(=O)c2cc3ccccc3o2)cc1Cl)Nc1ccccc1 [SMR000160815] | > 30 | –
15 | C=C(C=O)C[C@@H]1C[C@H](O)C2OC3C[C@]4(C)OC5/C=C\CC6OC7C(CC=CCC6OC5CCCC4OC3CC2O1)OC1CC2OC3CC(=O)OC3C[C@@H](C)C[C@@]2(C)OC1C[C@@H]7C (some centres not stated) [MLS002320514] | 2.15 | –
16 | CCOC(=O)C(=Cc1ccc(OC(F)F)cc1)C1=Nn2c(nnc2-c2ccc(Cl)cc2)SC1 [ethyl (Z)-2-[3-(4-chlorophenyl)-7H-[1,2,4]triazolo[3,4-b][1,3,4]thiadiazin-6-yl]-3-[4-(difluoromethoxy)phenyl]prop-2-enoate] | 7.79 | –
17 | COC(=O)C1CN(C#N)N(c2ccc(Cl)cc2)C12c1ccccc1-c1ccccc12 (configuration not stated) [2'-(4-chlorophenyl)-1'-cyano-4'-spiro[fluorene-9,3'-pyrazolidine]carboxylic acid methyl ester] | 6.71 | –
18 | FC(F)(F)c1nnc(-c2ccccc2)nc1Sc1ccc(Cl)cc1 [SMR000180067] | – | 0.73
19 | CC1(C)C[C@H]2C=C(C=O)[C@]3(C=O)C[C@]3(C)[C@H]2C1 | – | 3.15
20 | COc1cccc(-c2sc3ccccc3c2-c2ccc(OCCN(C)C)cc2)c1 | 12.4 | –
21 | C[S+]([O-])c1nc(-c2ccc(Br)cc2)cc(-c2ccccc2)c1C#N (configuration not stated) [6-(4-bromophenyl)-2-(methylsulfinyl)-4-phenylnicotinonitrile] | 2.67 | –
22 | COC(=O)[C@@H]1[C@@H](C(=O)OC)C2(c3ccccc3-c3ccccc32)N(c2ccc(Cl)cc2)N1C#N [(3'S,4'R)-1'-(4-chlorophenyl)-2'-cyanospiro[fluorene-9,5'-pyrazolidine]-3',4'-dicarboxylic acid dimethyl ester] | > 30 | –
